Earlier results on six molecules are cited in EP4659595A1, “NICOTINE-POLYMER COMPLEX COMPRISING MULTIPLE NICOTINE FORMS” (Nicoventures Trading Limited, priority 2024, dated 2025).

The conditions of series [1]: fats, alcohols, water.
For series [2] the following is noted: when isolated; converts via isomerization into trans-bixin (β-bixin).
For series [3] the following is noted: partition coefficient between octanol and water; source of values not stated.

For `CC(/C=C/C=C(C)/C=C/C(=O)O)=C\C=C\C=C(C)\C=C\C=C(C)\C=C\C(=O)O` (stereo in doubt) [norbixin, (2E,4E,6E,8E,10E,12E,14E,16E,18E)-4,8,13,17-tetramethylicosa-2,4,6,8,10,12,14,16,18-nonaenedioic acid], in series [1], the solubility result is reported as “water soluble”. Regarding `COC(=O)/C=C/C(C)=C\C=C\C(C)=C\C=C\C=C(C)\C=C\C=C(C)\C=C\C(=O)O` [bixin, (2E,4E,6E,8E,10E,12E,14E,16Z,18E)-20-methoxy-4,8,13,17-tetramethyl-20-oxoicosa-2,4,6,8,10,12,14,16,18-nonaenoic acid], the solubility result in series [1] is “soluble in fats and alcohols but insoluble in water”. Besides, the chemical stability entry in series [2] is recorded as “chemically unstable when isolated”. Consider `CC(C)[C@@H]1CC[C@@H](C)C[C@H]1OC(=O)CCC(=O)O` [monomenthyl succinate], for which the logP – broadly, a log measure of how a compound divides between an organic and an aqueous phase – in series [3] was 3. In the case of ethyl benzoic acid, in series [3], the logP is 2.9. In the case of isopropyl benzoic acid, the logP in series [3] was 3.5. tocopherol succinate: the logP in series [3] is on record as 10.2.
